Results as given in patent US9901558B2, “Enhancer of survival of transplanted organ” (SBI Pharmaceuticals Co., Ltd., priority 2011, dated 2018).

Test system: heterotopic heart-transplanted model mice
Assay: Heterotopic homologous heart transplantation in mice (B10 donors to CBA recipients), heart graft beating/survival
Assay type: in vivo
Conditions: group (b), n = 5: both donor and recipient mice received ALA (100 mg/kg) alone
From the text: B10 mice (male, 10 weeks old on average, body weight: 20 to 25 g) were used as donors for the hearts to be transplanted. CBA mice (male, 10 weeks old on average, body weight: 20 to 25 g) were used as recipients to receive the hearts taken out of the donors. The procedures of the heterotopic homologous heart transplantation in mice followed the description of Experimental Manual of Organ Transplantation (Shujunsha Co., Ltd.), Paragraph 1, Part 2, 2-1-5 “Heterotopic Heart Transplantation in Mice”. Hereinafter, the procedures will be summarized.
The thorax of each donor mouse was opened under anesthesia and sufficiently perfused using 1 mL of saline supplemented with cold heparin, followed by excision of the heart. The excised heart was preserved in saline supplemented with cold heparin. The abdomen of each recipient mouse was opened under anesthesia, and the heart excised from the donor mouse was transplanted into the abdominal vena cava to prepare heterotopic heart-transplanted model mice.
The heterotopic heart-transplanted model mice were divided into groups (1) to (4) with administration patterns shown in Table 1 below. An experiment was conducted on the oral administration of the agent for promoting graft survival of the present invention. […]

NCC(=O)CCC(=O)O [ALA, 5-aminolevulinic acid]
long-term beating of heart graft: seen in none of these individuals
